From US9149038B2, “4-amino-6-(heterocyclic)picolinates and 6-amino-2-(heterocyclic)pyrimidine-4-carboxylates and their use as herbicides” (Dow AgroSciences LLC, priority 2013, dated 2015)
Read-outs that look alike come from different tables or passages of the source.

Assays:
[1] = test system: Key Grass and Sedge Weeds as well as Grass Crops; test: Post-Emergent Test II: postemergent herbicidal activity, visual rating after 14 d (Table 8); type: in vivo; conditions: post-emergence, 336 h; for pest or weed control at 35 g/ha: 35 g ai/ha; for pest or weed control at 70 g/ha: 70 g ai/ha; for pest or weed control at 140 g/ha: 140 g ai/ha
How it was run: (§1)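 Greenhouse plants at first or second true leaf stage sprayed with compound in acetone/DMSO-based spray solution with crop oil concentrate and Triton X-155 at 187 L/ha, tested at highest rate and ½× to 1/16× dilutions; solvent blank controls. Injury rated visually 0–100% versus untreated plants after 14 d.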

[2] = test system: Key Broadleaf Weed and Crop Species; test: Post-Emergent Test II: postemergent herbicidal activity, visual rating after 14 d (Table 7); type: in vivo; conditions: post-emergence, 336 h; for pest or weed control at 35 g/ha: 35 g ai/ha; for pest or weed control at 70 g/ha: 70 g ai/ha; for pest or weed control at 140 g/ha: 140 g ai/ha
How it was run: as §1

[3] = barnyardgrass (Echinochloa crus-galli), read-out: Visual Growth Reduction (%) 14 Days After Application, ECHCG
[4] = giant foxtail (Setaria faberi), read-out: Visual Growth Reduction (%) 14 Days After Application, SETFA
[5] = maize, corn (Zea mays), read-out: Visual Growth Reduction (%) 14 Days After Application, ZEAMX
[6] = rice (Oryza sativa), read-out: Visual Growth Reduction (%) 14 Days After Application, ORYSA
[7] = wheat, spring (Triticum aestivum), read-out: Visual Growth Reduction (%) 14 Days After Application, TRZAS
[8] = yellow nutsedge (Cyperus esculentus), read-out: Visual Growth Reduction (%) 14 Days After Application, CYPES
[9] = ABUTH: velvetleaf (Abutilon theophrasti), read-out: Visual Growth Reduction (%) 14 Days After Application ABUTH
[10] = AMARE: redroot pigweed (Amaranthus retroflexus), read-out: Visual Growth Reduction (%) 14 Days After Application AMARE
[11] = BRSNN: oilseed rape, canola (Brassica napus), read-out: Visual Growth Reduction (%) 14 Days After Application BRSNN
[12] = CHEAL: lambsquarters (Chenopodium album), read-out: Visual Growth Reduction (%) 14 Days After Application CHEAL
[13] = EPHHL: wild poinsettia (Euphorbia heterophylla), read-out: Visual Growth Reduction (%) 14 Days After Application EPHHL
[14] = HELAN: sunflower (Helianthus annuus), read-out: Visual Growth Reduction (%) 14 Days After Application HELAN

Structure (SMILES) | pest or weed control at 35 g/ha [1, 3] [%] | pest or weed control at 70 g/ha [1, 3] [%] | pest or weed control at 140 g/ha [1, 3] [%] | pest or weed control at 35 g/ha [1, 4] [%] | pest or weed control at 70 g/ha [1, 4] [%] | pest or weed control at 140 g/ha [1, 4] [%] | pest or weed control at 35 g/ha [1, 5] [%] | pest or weed control at 70 g/ha [1, 5] [%] | pest or weed control at 140 g/ha [1, 5] [%] | pest or weed control at 35 g/ha [1, 6] [%] | pest or weed control at 70 g/ha [1, 6] [%] | pest or weed control at 140 g/ha [1, 6] [%] | pest or weed control at 35 g/ha [1, 7] [%] | pest or weed control at 70 g/ha [1, 7] [%] | pest or weed control at 140 g/ha [1, 7] [%] | pest or weed control at 35 g/ha [1, 8] [%] | pest or weed control at 70 g/ha [1, 8] [%] | pest or weed control at 140 g/ha [1, 8] [%] | pest or weed control at 35 g/ha [2, 9] [%] | pest or weed control at 70 g/ha [2, 9] [%] | also measured
Nc1cc(-c2ccc(Cl)c3c2OC(F)(F)O3)nc(C(=O)O)c1Cl [Compound 87] | 0 to 29 | 0 to 29 | 0 to 29 | 0 to 29 | 0 to 29 | 0 to 29 | 0 to 29 | 0 to 29 | 0 to 29 | 0 to 29 | 0 to 29 | 0 to 29 | 0 to 29 | 0 to 29 | 0 to 29 | 0 to 29 | 0 to 29 | 0 to 29 | 75 to 84 | 85 to 94 | pest or weed control at 140 g/ha [2, 9]: 85 to 94%; pest or weed control at 35 g/ha [2, 10]: 95 to 100%; pest or weed control at 70 g/ha [2, 10]: 95 to 100%; pest or weed control at 140 g/ha [2, 10]: 95 to 100%; pest or weed control at 35 g/ha [2, 11]: 60 to 74%; pest or weed control at 70 g/ha [2, 11]: 75 to 84%; pest or weed control at 140 g/ha [2, 11]: 85 to 94%; pest or weed control at 35 g/ha [2, 12]: 95 to 100%; pest or weed control at 70 g/ha [2, 12]: 95 to 100%; pest or weed control at 140 g/ha [2, 12]: 95 to 100%; pest or weed control at 35 g/ha [2, 13]: 0 to 29%; pest or weed control at 70 g/ha [2, 13]: 0 to 29%; pest or weed control at 140 g/ha [2, 13]: 0 to 29%; pest or weed control at 35 g/ha [2, 14]: 75 to 84%; pest or weed control at 70 g/ha [2, 14]: 75 to 84%; pest or weed control at 140 g/ha [2, 14]: 75 to 84%
COC(=O)c1nc(-c2cccc3c2OC(F)(F)O3)nc(N)c1OC [Compound 99] | 0 to 29 | 0 to 29 | 0 to 29 | 0 to 29 | 0 to 29 | 0 to 29 | 0 to 29 | 0 to 29 | 0 to 29 | 0 to 29 | 0 to 29 | 0 to 29 | 0 to 29 | 0 to 29 | 0 to 29 | 0 to 29 | 0 to 29 | 0 to 29 | 0 to 29 | 0 to 29 | pest or weed control at 140 g/ha [2, 9]: 0 to 29%; pest or weed control at 35 g/ha [2, 10]: 0 to 29%; pest or weed control at 70 g/ha [2, 10]: 0 to 29%; pest or weed control at 140 g/ha [2, 10]: 0 to 29%; pest or weed control at 35 g/ha [2, 11]: 0 to 29%; pest or weed control at 70 g/ha [2, 11]: 0 to 29%; pest or weed control at 140 g/ha [2, 11]: 0 to 29%; pest or weed control at 35 g/ha [2, 12]: 60 to 74%; pest or weed control at 70 g/ha [2, 12]: 75 to 84%; pest or weed control at 140 g/ha [2, 12]: 85 to 94%; pest or weed control at 35 g/ha [2, 13]: 0 to 29%; pest or weed control at 70 g/ha [2, 13]: 0 to 29%; pest or weed control at 140 g/ha [2, 13]: 0 to 29%; pest or weed control at 35 g/ha [2, 14]: 75 to 84%; pest or weed control at 70 g/ha [2, 14]: 85 to 94%; pest or weed control at 140 g/ha [2, 14]: 85 to 94%
